Legend:
cortical serotonin level = test: Microdialysis: effect on the cortical serotonin level in vivo; settings: rats
Description: In order to determine the effect of the substances on the cortical serotonin level in rats in vivo, a microdialysis probe with a semipermeable membrane was implanted into the brain tissue and perfused with a solution matched to the composition of cerebrospinal fluid (see in this respect, for example, Di Chiara, Trends Pharmacol. Sci. 11, 117-121, 1990). The molecules of the extracellular space, such as, for example, also of the neurotransmitter serotonin, diffuse via this membrane into the interior of the probe in accordance with their concentration gradient. From there, they are transported with the perfusion stream to a collecting vessel. The serotonin concentration in the dialysate obtained in this way is subsequently determined by means of high-sensitivity analytical methods. The fractions obtained at regular intervals (of, for example, 15-20 minutes) thus reflect the concentration changes of the transmitter in question in the brain tissue over a period of several hours. The concentration of the serotonin in the dialysate is firstly measured without any influence. The substance to be tested is then applied, and the serotonin concentrations before and after administration of the substances are compared.

[1] = Absolute bioavailability from AUC after po and iv administration; type: in vivo; settings: rat; Wistar rats, male; iv 0.2 mg/kg, po 0.5 mg/kg; plasma by LC/MS/MS
Procedure: The bioavailability was determined by a standard method described in many textbooks of pharmacokinetics with the aid of the AUC (area under the concentration/time curves) measured after po and iv administration. For the determination of the absolute bioavailability, the plasma concentration curve of the said substances was determined after intravenous (iv) and oral (po) administration to Wistar rats (male; N=3 animals/administration). The following experiment design was selected: • Administration method: iv and po • Dose: iv−0.2 mg/kg; po−0.5 mg/kg • Time of blood sampling for the determination of the plasma concentrations: • iv: 0.1, 0.5, 1, 2, 4, 6 and 24 h • po: 0.25, 0.5, 1, 2, 4, 6 and 24 h
The plasma concentrations were determined with the aid of LC/MS/MS.
The plasma concentrations were used to calculate the AUC (area under the concentration/time curve) in accordance with the so-called trapezium formula.
The bioavailability is obtained from the AUC in accordance with the following formula: Bioavailability [%]=100×(AUC po)/AUC iv)[…]

N#Cc1ccc2[nH]cc(CCCCN3CCN(c4ccc5oc(C(N)=O)cc5c4)CC3)c2c1 [EMD 68843, 5-{4-[4-(5-cyano-3-inolyl)butyl]-1-piperanzinyl}benzofuran-2-carboxamide, reference compound]
serotonin level in the brain (5-HT concentration in the dialysate), FIG. 1 (cortical serotonin level; 1 mg/kg i.p.): comparable increase in the concentration of serotonin in the brain to EMD 135894

N#Cc1ccc2[nH]cc(CCCCN3CCN(c4ccc5oc(=O)ccc5c4)CC3)c2c1 [EMD 135894, 3-(4-(4-(2-oxo-2H-1-benzopyran-6-yl)-1-piperazinyl)butyl)indole-5-carbonitrile, reference compound]
bioavailability [1]: 10%

N#Cc1ccc2[nH]cc(CCCCN3CCN(c4ccc5oc(=O)c(N)cc5c4)CC3)c2c1 [EMD 480246, 3-{4-[4-(3-Amino-2-oxo-2H-chromen-6-yl)piperazin-1-yl]butyl}-1H-indole-5-carbonitrile]
serotonin level in the brain (5-HT concentration in the dialysate), FIG. 2 (cortical serotonin level; 0.3 mg/kg i.p.): even higher serotonin level than EMD 391987

CCOC(=O)Nc1cc2cc(N3CCN(CCCCc4c[nH]c5ccc(C#N)cc45)CC3)ccc2oc1=O [EMD 480247, Ethyl(6-{4-[4-(5-cyano-1H-indol-3-yl)butyl]piperazin-1-yl}-2-oxo-2H-chromen-3-yl)carbamate]
bioavailability [1]: ~20% | serotonin level in the brain (5-HT concentration in the dialysate), FIG. 3 (cortical serotonin level; 0.3 or 1.0 mg/kg i.p. compared with vilazodone 1 mg/kg): clearly superior action to vilazodone

Source: US7968551B2, “Chromenoneindoles” (Merck Patent GmbH, priority 2003, dated 2011)
